{"source": "patent US20230398130A1", "about": "“METHODS AND COMPOSITIONS FOR DIFFERENTIATING STEM CELLS” (Massachusetts Institute of Technology, priority 2020, published 2023)", "test_system": "ISC-enriched organoids", "assay": "Primary screen, 384-well 2.5-D organoid differentiation (ENR+CD, 6 days, Target Selective Inhibitor Library, vs whole-plate median): ATP (CellTiter-Glo 3D, CTG)", "conditions": "for Z.CTG: standard z score of FC", "note": "Counter-ions that a name gives are not always drawn."}
{"smiles": "Cn1c(=O)cc(N2CCC[C@@H](N)C2)n(Cc2cc(F)ccc2C#N)c1=O", "note": "[Trelagliptin]", "values": [{"measurement": "Z.CTG (standard z score)", "setting": "dose 0.08 uM", "value": 0.482}, {"measurement": "Z.CTG (standard z score)", "setting": "dose 0.40 uM", "value": "−0.181"}, {"measurement": "Z.CTG (standard z score)", "setting": "dose 2.00 uM", "value": 0.120}, {"measurement": "Z.CTG (standard z score)", "setting": "dose 10.00 uM", "value": 0.322}]}
{"smiles": "CC(C)NCC(O)COc1cccc2ccccc12", "note": "(stereo not drawn) [Propranolol HCl]", "values": [{"measurement": "Z.CTG (standard z score)", "setting": "Dose 0.08 uM, primary screen", "value": 0.158}, {"measurement": "Z.CTG (standard z score)", "setting": "Dose 0.40 uM, primary screen", "value": 0.129}, {"measurement": "Z.CTG (standard z score)", "setting": "Dose 2.00 uM, primary screen", "value": 0.279}, {"measurement": "Z.CTG (standard z score)", "setting": "Dose 10.00 uM, primary screen", "value": 0.400}]}
{"smiles": "Cn1c(N2CCCCS2(=O)=O)nc(C(=O)NCc2ccc(F)cc2)c(O)c1=O", "note": "[BMS-707035]", "values": [{"measurement": "Z.CTG", "setting": "primary screen, dose 0.08 uM", "value": 0.759}, {"measurement": "Z.CTG", "setting": "primary screen, dose 0.40 uM", "value": 0.568}, {"measurement": "Z.CTG", "setting": "primary screen, dose 2.00 uM", "value": 0.667}, {"measurement": "Z.CTG", "setting": "primary screen, dose 10.00 uM", "value": 0.330}]}
{"smiles": "C=CC(=O)Nc1cccc(Oc2nc(Nc3ccc(N4CCN(C)CC4)cc3OC)ncc2Cl)c1", "note": "[WZ4002]", "values": [{"measurement": "Z.CTG (standard z score)", "setting": "dose 0.08 uM", "value": 0.748}, {"measurement": "Z.CTG (standard z score)", "setting": "dose 0.40 uM", "value": 0.196}, {"measurement": "Z.CTG (standard z score)", "setting": "dose 2.00 uM", "value": 0.360}, {"measurement": "Z.CTG (standard z score)", "setting": "dose 10.00 uM", "value": "−2.248"}]}
{"smiles": "N#CC1(c2ccc(NC(=O)c3cccnc3NCc3ccncc3)cc2)CCCC1", "note": "[Apatinib]", "values": [{"measurement": "Z.CTG", "setting": "primary screen, dose 0.08 uM", "value": 0.532}, {"measurement": "Z.CTG", "setting": "primary screen, dose 0.40 uM", "value": 0.722}, {"measurement": "Z.CTG", "setting": "primary screen, dose 2.00 uM", "value": 0.645}, {"measurement": "Z.CTG", "setting": "primary screen, dose 10.00 uM", "value": 0.520}]}
{"smiles": "CCOC(=O)C1=C(C)NC(C)=C(C(=O)OC)C1c1cccc(Cl)c1Cl", "note": "(stereo not drawn) [Felodipine]", "values": [{"measurement": "Z.CTG", "setting": "Dose 0.08 uM", "value": "−0.187"}, {"measurement": "Z.CTG", "setting": "Dose 0.40 uM", "value": "−0.763"}, {"measurement": "Z.CTG", "setting": "Dose 2.00 uM", "value": 0.025}, {"measurement": "Z.CTG", "setting": "Dose 10.00 uM", "value": 0.078}]}
{"smiles": "COc1cc2c(cc1OC)[C@@H]1Cc3ccc(OC)c(OC)c3CN1CC2", "note": "[Rotundine]", "values": [{"measurement": "Z.CTG (standard z score)", "setting": "Dose 0.08 uM, primary screen", "value": 0.857}, {"measurement": "Z.CTG (standard z score)", "setting": "Dose 0.40 uM, primary screen", "value": 0.818}, {"measurement": "Z.CTG (standard z score)", "setting": "Dose 2.00 uM, primary screen", "value": 0.454}, {"measurement": "Z.CTG (standard z score)", "setting": "Dose 10.00 uM, primary screen", "value": 0.543}]}
{"smiles": "CCC(COC(=O)c1cc(OC)c(OC)c(OC)c1)(c1ccccc1)N(C)C", "note": "(stereo not drawn) [Trimebutine]", "values": [{"measurement": "Z.CTG (standard z score)", "setting": "dose 0.08 uM", "value": 0.017}, {"measurement": "Z.CTG (standard z score)", "setting": "dose 0.40 uM", "value": "−0.483"}, {"measurement": "Z.CTG (standard z score)", "setting": "dose 2.00 uM", "value": "−2.409"}, {"measurement": "Z.CTG (standard z score)", "setting": "dose 10.00 uM", "value": "−2.545"}]}
{"smiles": "CN(C)CCc1c[nH]c2ccc(Cn3cncn3)cc12", "note": "[Rizatriptan Benzoate]", "values": [{"measurement": "Z.CTG (standard z score)", "setting": "Dose 0.08 uM, primary screen", "value": 0.512}, {"measurement": "Z.CTG (standard z score)", "setting": "Dose 0.40 uM, primary screen", "value": 0.260}, {"measurement": "Z.CTG (standard z score)", "setting": "Dose 2.00 uM, primary screen", "value": 0.302}, {"measurement": "Z.CTG (standard z score)", "setting": "Dose 10.00 uM, primary screen", "value": "−0.129"}]}
{"smiles": "NC(=O)N1c2ccccc2CC(=O)c2ccccc21", "note": "[Oxcarbazepine]", "values": [{"measurement": "Z.CTG", "setting": "Dose 0.08 uM", "value": "−0.051"}, {"measurement": "Z.CTG", "setting": "Dose 0.40 uM", "value": "−0.247"}, {"measurement": "Z.CTG", "setting": "Dose 2.00 uM", "value": "−0.197"}, {"measurement": "Z.CTG", "setting": "Dose 10.00 uM", "value": "−0.359"}]}
{"smiles": "COc1ccccc1OCCNCC(O)COc1cccc2[nH]c3ccccc3c12", "note": "(stereo not drawn) [Carvedilol]", "values": [{"measurement": "Z.CTG", "setting": "Dose 0.08 uM", "value": 0.136}, {"measurement": "Z.CTG", "setting": "Dose 0.40 uM", "value": "−0.034"}, {"measurement": "Z.CTG", "setting": "Dose 2.00 uM", "value": "−0.360"}, {"measurement": "Z.CTG", "setting": "Dose 10.00 uM", "value": "−0.577"}]}
{"smiles": "CN1CC(=O)N2[C@H](c3ccc4c(c3)OCO4)c3[nH]c4ccccc4c3C[C@@H]2C1=O", "note": "[Tadalafil]", "values": [{"measurement": "Z.CTG (standard z score)", "setting": "Dose 0.08 uM, primary screen", "value": "−0.046"}, {"measurement": "Z.CTG (standard z score)", "setting": "Dose 0.40 uM, primary screen", "value": 0.863}, {"measurement": "Z.CTG (standard z score)", "setting": "Dose 2.00 uM, primary screen", "value": 1.042}, {"measurement": "Z.CTG (standard z score)", "setting": "Dose 10.00 uM, primary screen", "value": 0.644}]}
{"smiles": "O=C(O)/C=C/c1ccc(Cn2ccnc2)cc1", "note": "[Ozagrel HCl]", "values": [{"measurement": "Z.CTG", "setting": "Dose 0.08 uM", "value": 0.118}, {"measurement": "Z.CTG", "setting": "Dose 0.40 uM", "value": 0.318}, {"measurement": "Z.CTG", "setting": "Dose 2.00 uM", "value": 0.437}, {"measurement": "Z.CTG", "setting": "Dose 10.00 uM", "value": 0.547}]}
{"smiles": "O=C(NOC[C@H](O)CO)c1ccc(F)c(F)c1Nc1ccc(I)cc1F", "note": "[PD0325901]", "values": [{"measurement": "Z.CTG", "setting": "Dose 0.08 uM", "value": "−1.200"}, {"measurement": "Z.CTG", "setting": "Dose 0.40 uM", "value": "−2.760"}, {"measurement": "Z.CTG", "setting": "Dose 2.00 uM", "value": "−2.072"}, {"measurement": "Z.CTG", "setting": "Dose 10.00 uM", "value": "−2.301"}]}
{"smiles": "COc1ccc(C(=O)N2CCCC2=O)cc1", "note": "[Aniracetam]", "values": [{"measurement": "Z.CTG", "setting": "primary screen, dose 0.08 uM", "value": "−0.211"}, {"measurement": "Z.CTG", "setting": "primary screen, dose 0.40 uM", "value": 0.267}, {"measurement": "Z.CTG", "setting": "primary screen, dose 2.00 uM", "value": 0.130}, {"measurement": "Z.CTG", "setting": "primary screen, dose 10.00 uM", "value": 0.045}]}
{"smiles": "Cc1ccccc1C(C(=O)NC1CCCCC1)N(C(=O)Cn1ccnc1C)c1cccc(F)c1", "note": "(stereo not drawn) [AGI-5198]", "values": [{"measurement": "Z.CTG", "setting": "primary screen, dose 0.08 uM", "value": 0.738}, {"measurement": "Z.CTG", "setting": "primary screen, dose 0.40 uM", "value": 0.368}, {"measurement": "Z.CTG", "setting": "primary screen, dose 2.00 uM", "value": 0.671}, {"measurement": "Z.CTG", "setting": "primary screen, dose 10.00 uM", "value": 0.802}]}
{"smiles": "COCCOc1ccc2c(c1)ncn2-c1ccc2cccc(N3CCC(N)CC3)c2n1", "note": "[CP-673451]", "values": [{"measurement": "Z.CTG", "setting": "Dose 0.08 uM", "value": 0.166}, {"measurement": "Z.CTG", "setting": "Dose 0.40 uM", "value": 0.445}, {"measurement": "Z.CTG", "setting": "Dose 2.00 uM", "value": 0.018}, {"measurement": "Z.CTG", "setting": "Dose 10.00 uM", "value": "−0.616"}]}
{"smiles": "CC(C)CC(=O)Nc1[nH]nc2c1CN(C(=O)C1CCN(C)CC1)C2(C)C", "note": "[PHA-793887]", "values": [{"measurement": "Z.CTG", "setting": "Dose 0.08 uM", "value": 0.271}, {"measurement": "Z.CTG", "setting": "Dose 0.40 uM", "value": 0.314}, {"measurement": "Z.CTG", "setting": "Dose 2.00 uM", "value": "−0.344"}, {"measurement": "Z.CTG", "setting": "Dose 10.00 uM", "value": "−2.045"}]}
{"smiles": "Cc1c(Cl)cccc1Nc1ccccc1C(=O)O", "note": "[Tolfenamic Acid]", "values": [{"measurement": "Z.CTG (standard z score)", "setting": "dose 0.08 uM", "value": 0.467}, {"measurement": "Z.CTG (standard z score)", "setting": "dose 0.40 uM", "value": "−0.007"}, {"measurement": "Z.CTG (standard z score)", "setting": "dose 2.00 uM", "value": "−0.379"}, {"measurement": "Z.CTG (standard z score)", "setting": "dose 10.00 uM", "value": "−0.276"}]}
{"smiles": "Oc1ncnc2[nH]ncc12", "note": "[Allopurinol]", "values": [{"measurement": "Z.CTG", "setting": "primary screen, dose 0.08 uM", "value": 0.506}, {"measurement": "Z.CTG", "setting": "primary screen, dose 0.40 uM", "value": "−0.234"}, {"measurement": "Z.CTG", "setting": "primary screen, dose 2.00 uM", "value": "−0.387"}, {"measurement": "Z.CTG", "setting": "primary screen, dose 10.00 uM", "value": "−1.085"}]}
{"smiles": "OC(CNCC(O)C1CCc2cc(F)ccc2O1)C1CCc2cc(F)ccc2O1", "note": "(stereo not drawn) [Nebivolol]", "values": [{"measurement": "Z.CTG", "setting": "Dose 0.08 uM", "value": 0.926}, {"measurement": "Z.CTG", "setting": "Dose 0.40 uM", "value": 0.526}, {"measurement": "Z.CTG", "setting": "Dose 2.00 uM", "value": 0.746}, {"measurement": "Z.CTG", "setting": "Dose 10.00 uM", "value": 0.499}]}
